{"source": "patent US10555919B2", "about": "“Melatonin in autoimmune disease” (The Brigham and Women's Hopsital, Inc., priority 2014, dated 2020)", "key": {"[1]": {"tested_on": "human CD4+ T cells activated under Th17 polarizing conditions", "experiment": "In vitro human Th17 differentiation", "type": "cell-based", "settings": "500 ng/ml", "experimental": "(§1) In vitro human T cell differentiation. For Th17 differentiation, naive CD45RA+ CD4+ T cells were isolated from PBMCs with magnetic beads (Naive Human CD4+ T Cell Isolation Kit II, Miltenyi Biotec) and seeded at a density of 5×10^5 cells/ml in 24-well plates coated with anti-CD3 and (2 μg/ml) and soluble anti-CD28 and cultured in the presence of the following cytokines IL-1β (25 ng/ml), IL-6 (50 ng/ml), and TGF-β1 (2 ng/ml) and neutralizing antibodies to IFN-g ([…]) and IL-4 (10 microgram/ml). Alternatively, Th17 cells were differentiated by using IL-1β (25 ng/ml), IL-6 (50 ng/ml), and IL-23 (50 ng/ml) and neutralizing antibodies to IFN-g ([…]) and IL-4 (10 microgram/ml). For Th1 differentiation naïve CD4+T cells are cultured in the presence of IL-12 (20 ng/ml) and anti-IL-4 (10 μg/ml).\nSecreted cytokines were measured in tissue culture supernatants after 72-96 hs by enzyme-linked immunosorbent assay as previously described (Farez et al., 2009)."}, "[2]": {"tested_on": "human Th1 cells", "experiment": "In vitro human Th1 differentiation", "type": "cell-based", "settings": "500 ng/ml; IL-12", "experimental": "as §1"}, "[3]": {"tested_on": "CD4+ T cells", "experiment": "Flow cytometry of T cell subsets from spleen, lymph nodes and CNS of EAE mice", "type": "in vivo, C57BL/6 wild-type mice", "settings": "melatonin 5 mg/kg daily", "experimental": "For intracellular cytokine staining, cells were stimulated for 4 h at 37° C. with phorbol 12-myristate 13-acetate (50 ng/ml; Sigma), ionomycin (1 μg/ml; Sigma) and monensin (GolgiStop; 1 μg/ml; BD Biosciences). After being stained for surface markers, cells were fixed and made permeable according to the manufacturer's instructions (BD Biosciences). All antibodies against cytokines were from Biolegend. All experiments were started at the same time (8-9 am). Data were collected with a LSR II or FACSAria (BD Biosciences), then were analyzed with FlowJo software (Treestar). CNS infiltrates were isolated as described (Mascanfroni et al., 2013). Mice were perfused with ice-cold PBS. The brain and spinal cord were removed and incubated in PBS containing collagenase type III (2 mg/ml; Worthington) and DNase (20 units/ml; Sigma-Aldrich). Tissues were then homogenized and loaded on a 30%-37%-70% Percoll gradient for enrichment of CNS infiltrates. Based on our epidemiological findings, we studied the effects of melatonin on CNS inflammation using the experimental autoimmune […] (EAE) model of MS. Naïve C57BL/6 wild-type mice were immunized with MOG35-55 and treated daily with melatonin (5 mg/kg, intraperitoneally) or vehicle. Melatonin administration ameliorated EAE clinical symptoms (FIG. 2a, Table 2 and FIG. 7a)."}}}
{"smiles": "COc1ccc2[nH]cc(CCNC(C)=O)c2c1", "note": "[Melatonin, N-Acetyl-5-methoxytryptamine]", "values": [{"measurement": "production of IL-17, RORC and IL17A expression", "setting": "[1]", "value": "reduced"}, {"measurement": "IL10 expression", "setting": "[1]; Th17 polarizing conditions", "value": "increased"}, {"measurement": "differentiation of human Th1 cells", "setting": "[2]", "value": "no effect"}, {"measurement": "IL-10 secreting CD4+ T cells", "setting": "[3]", "value": "increase"}, {"measurement": "number and frequency of Th17 cells in spleen, lymph nodes and CNS", "setting": "[3]", "value": "decreased number and frequency"}, {"measurement": "number or frequency of other T cell subsets, B cells, γδ T cells or innate lymphoid cells (ILCs)", "setting": "[3]", "value": "no significant changes"}]}
